In ChEMBL document CHEMBL2146447, “Synthesis and antimicrobial activity of amido linked pyrrolyl and pyrazolyl-oxazoles, thiazoles and imidazoles” (2011):

What was measured:
Assay type in all cases: functional
Aspergillus niger [1] = assay: Fungicidal activity against Aspergillus niger after 48 hrs by NCCLS M27-P broth dilution method
Pseudomonas aeruginosa [2] = assay: Bactericidal activity against Pseudomonas aeruginosa after 24 hrs by NCCLS M7-A3 method
Staphylococcus aureus [3] = assay: Antibacterial activity against Staphylococcus aureus at 100 ug after 24 hrs by agar well diffusion method; settings: read-out: DIZ
Klebsiella pneumoniae [4] = assay: Antibacterial activity against Klebsiella pneumoniae at 100 ug after 24 hrs by agar well diffusion method; settings: read-out: DIZ
Aspergillus niger [5] = assay: Fungicidal activity against Aspergillus niger after 48 hrs by broth dilution method
Penicillium chrysogenum [6] = assay: Antifungal activity against Penicillium chrysogenum at 50 ug after 48 hrs by agar well diffusion method; settings: read-out: DIZ
Bacillus subtilis [7] = assay: Antibacterial activity against Bacillus subtilis at 50 ug after 24 hrs by agar well diffusion method; settings: read-out: DIZ
Pseudomonas aeruginosa [8] = assay: Antibacterial activity against Pseudomonas aeruginosa at 50 ug after 24 hrs by agar well diffusion method; settings: read-out: DIZ
Penicillium chrysogenum [9] = assay: Fungicidal activity against Penicillium chrysogenum after 48 hrs by NCCLS M27-P broth dilution method
Penicillium chrysogenum [10] = assay: Antifungal activity against Penicillium chrysogenum at 100 ug after 48 hrs by agar well diffusion method; settings: read-out: DIZ
Aspergillus niger [11] = assay: Antifungal activity against Aspergillus niger at 50 ug after 48 hrs by agar well diffusion method; settings: read-out: DIZ
Staphylococcus aureus [12] = assay: Antibacterial activity against Staphylococcus aureus at 35 degC after 24 hrs by NCCLS M7-A3 method
Bacillus subtilis [13] = assay: Bactericidal activity against Bacillus subtilis after 24 hrs by NCCLS M7-A3 method
Pseudomonas aeruginosa [14] = assay: Antibacterial activity against Pseudomonas aeruginosa at 100 ug after 24 hrs by agar well diffusion method; settings: read-out: DIZ
Klebsiella pneumoniae [15] = assay: Antibacterial activity against Klebsiella pneumoniae at 50 ug after 24 hrs by agar well diffusion method; settings: read-out: DIZ
Bacillus subtilis [16] = assay: Bactericidal activity against Bacillus subtilis after 24 hrs by broth dilution method
Pseudomonas aeruginosa [17] = assay: Bactericidal activity against Pseudomonas aeruginosa after 24 hrs by broth dilution method
Penicillium chrysogenum [18] = assay: Fungicidal activity against Penicillium chrysogenum after 48 hrs by broth dilution method
Staphylococcus aureus [19] = assay: Antibacterial activity against Staphylococcus aureus assessed at 50 ug after 24 hrs by agar well diffusion method; settings: read-out: DIZ
Aspergillus niger [20] = assay: Antifungal activity against Aspergillus niger at 100 ug after 48 hrs by agar well diffusion method; settings: read-out: DIZ
Bacillus subtilis [21] = assay: Antibacterial activity against Bacillus subtilis at 100 ug after 24 hrs by agar well diffusion method; settings: read-out: DIZ
Klebsiella pneumoniae [22] = assay: Bactericidal activity against Klebsiella pneumoniae after 24 hrs by broth dilution method
Staphylococcus aureus [23] = assay: Antibacterial activity against Staphylococcus aureus at 35 degC after 24 hrs by broth dilution method
Klebsiella pneumoniae [24] = assay: Bactericidal activity against Klebsiella pneumoniae after 24 hrs by NCCLS M7-A3 method

| Compound | MFC (Aspergillus niger [1]) [µg] | MBC (Pseudomonas aeruginosa [2]) [µg] | zone of inhibition at 100 µg/disc (Staphylococcus aureus [3]) [mm] | zone of inhibition at 100 µg/disc (Klebsiella pneumoniae [4]) [mm] | MIC (Aspergillus niger [5]) [µg] | zone of inhibition at 50 µg/disc (Penicillium chrysogenum [6]) [mm] | zone of inhibition at 50 µg/disc (Bacillus subtilis [7]) [mm] | zone of inhibition at 50 µg/disc (Pseudomonas aeruginosa [8]) [mm] | MFC (Penicillium chrysogenum [9]) [µg] | zone of inhibition at 100 µg/disc (Penicillium chrysogenum [10]) [mm] | zone of inhibition at 50 µg/disc (Aspergillus niger [11]) [mm] | MBC (Staphylococcus aureus [12]) [µg] | MBC (Bacillus subtilis [13]) [µg] | zone of inhibition at 100 µg/disc (Pseudomonas aeruginosa [14]) [mm] | zone of inhibition at 50 µg/disc (Klebsiella pneumoniae [15]) [mm] | MIC (Bacillus subtilis [16]) [µg] | MIC (Pseudomonas aeruginosa [17]) [µg] | MIC (Penicillium chrysogenum [18]) [µg] | zone of inhibition at 50 µg/disc (Staphylococcus aureus [19]) [mm] | zone of inhibition at 100 µg/disc (Aspergillus niger [20]) [mm] | also measured |
| --- | --- | --- | --- | --- | --- | --- | --- | --- | --- | --- | --- | --- | --- | --- | --- | --- | --- | --- | --- | --- | --- |
| O=C(/C=C/c1ccccc1)Nc1nc(-c2ccc(Cl)cc2)c[nH]1 | 100 | 50 | 35 | 40 | 12.5 | 35 | 36 | 31 | 50 | 38 | 32 | 50 | 25 | 33 | 39 | 12.5 | 12.5 | 25 | 32 | 34 | zone of inhibition at 100 µg/disc (Bacillus subtilis [21]): 38 mm; MIC (Klebsiella pneumoniae [22]): 25 µg; MIC (Staphylococcus aureus [23]): 12.5 µg; MBC (Klebsiella pneumoniae [24]): 100 µg |
| O=C(Nc1nc(-c2ccc(Cl)cc2)c[nH]1)c1c[nH]cc1-c1ccccc1 | 100 | >200 | 33 | 36 | 25 | 33 | 29 | 25 | >200 | 36 | 32 | 200 | 100 | 28 | 34 | 25 | 50 | 50 | 30 | 34 | zone of inhibition at 100 µg/disc (Bacillus subtilis [21]): 33 mm; MIC (Klebsiella pneumoniae [22]): 100 µg; MIC (Staphylococcus aureus [23]): 50 µg; MBC (Klebsiella pneumoniae [24]): >200 µg |
| O=C(Nc1nc(-c2ccc(Cl)cc2)c[nH]1)c1n[nH]cc1-c1ccccc1 | 50 | 100 | 34 | 39 | 12.5 | 33 | 33 | 30 | 100 | 37 | 30 | 200 | 50 | 32 | 37 | 12.5 | 25 | 25 | 31 | 34 | zone of inhibition at 100 µg/disc (Bacillus subtilis [21]): 35 mm; MIC (Klebsiella pneumoniae [22]): 50 µg; MIC (Staphylococcus aureus [23]): 50 µg; MBC (Klebsiella pneumoniae [24]): 200 µg |
